Laboratory results: patent US20210317140A1, “Heterocyclic Compounds and Methods of Use” (MEDIVATION TECHNOLOGIES, INC, priority 2013, published 2021)
pIC50: −log10 of the molar value.

Experiments:
Type in all cases: biochemical
TEC = molecular target: T1, TEC (Homo sapiens, UniProt P42680); assay: TEC kinase profiling (BTK protocol); details: for TEC @ 0.3 μM (% Inh): 0.3 μM compound; for pIC50: 10 dose IC50
T1 construct: purchased Reaction Biology Corporation
T1 sequence (P42680 1-631): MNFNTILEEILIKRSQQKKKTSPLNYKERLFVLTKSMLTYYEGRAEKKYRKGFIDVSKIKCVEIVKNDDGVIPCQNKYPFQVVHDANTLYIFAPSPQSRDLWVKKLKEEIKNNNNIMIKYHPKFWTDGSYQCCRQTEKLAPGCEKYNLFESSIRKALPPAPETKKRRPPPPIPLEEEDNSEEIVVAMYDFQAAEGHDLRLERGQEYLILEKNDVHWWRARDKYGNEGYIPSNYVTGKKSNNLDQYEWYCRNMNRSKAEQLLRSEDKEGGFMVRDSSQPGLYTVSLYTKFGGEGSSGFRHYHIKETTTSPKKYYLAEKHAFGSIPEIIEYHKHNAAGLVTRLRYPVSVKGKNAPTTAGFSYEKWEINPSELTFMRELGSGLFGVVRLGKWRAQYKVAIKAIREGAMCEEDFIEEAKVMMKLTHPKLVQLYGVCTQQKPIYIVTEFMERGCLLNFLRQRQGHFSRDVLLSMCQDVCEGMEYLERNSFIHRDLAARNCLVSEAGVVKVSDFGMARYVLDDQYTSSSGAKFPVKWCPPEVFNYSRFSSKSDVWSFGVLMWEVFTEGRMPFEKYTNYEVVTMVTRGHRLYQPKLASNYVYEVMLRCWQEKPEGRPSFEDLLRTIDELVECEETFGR

PI3Kδ = molecular target: T2, PI3Kδ (Homo sapiens, UniProt O00329); assay: PI3Kδ kinase assay (HTRF, PIP3 detection); details: for PI3Kδ @ 0.1 μM (% Inh): 0.1 μM compound; for PI3Kδ @ 1 μM (% Inh): 1 μM compound; for pIC50: 10 dose IC50, 10 μM ATP
T2 construct: purchased Reaction Biology Corporation
T2 sequence (O00329 whole entry): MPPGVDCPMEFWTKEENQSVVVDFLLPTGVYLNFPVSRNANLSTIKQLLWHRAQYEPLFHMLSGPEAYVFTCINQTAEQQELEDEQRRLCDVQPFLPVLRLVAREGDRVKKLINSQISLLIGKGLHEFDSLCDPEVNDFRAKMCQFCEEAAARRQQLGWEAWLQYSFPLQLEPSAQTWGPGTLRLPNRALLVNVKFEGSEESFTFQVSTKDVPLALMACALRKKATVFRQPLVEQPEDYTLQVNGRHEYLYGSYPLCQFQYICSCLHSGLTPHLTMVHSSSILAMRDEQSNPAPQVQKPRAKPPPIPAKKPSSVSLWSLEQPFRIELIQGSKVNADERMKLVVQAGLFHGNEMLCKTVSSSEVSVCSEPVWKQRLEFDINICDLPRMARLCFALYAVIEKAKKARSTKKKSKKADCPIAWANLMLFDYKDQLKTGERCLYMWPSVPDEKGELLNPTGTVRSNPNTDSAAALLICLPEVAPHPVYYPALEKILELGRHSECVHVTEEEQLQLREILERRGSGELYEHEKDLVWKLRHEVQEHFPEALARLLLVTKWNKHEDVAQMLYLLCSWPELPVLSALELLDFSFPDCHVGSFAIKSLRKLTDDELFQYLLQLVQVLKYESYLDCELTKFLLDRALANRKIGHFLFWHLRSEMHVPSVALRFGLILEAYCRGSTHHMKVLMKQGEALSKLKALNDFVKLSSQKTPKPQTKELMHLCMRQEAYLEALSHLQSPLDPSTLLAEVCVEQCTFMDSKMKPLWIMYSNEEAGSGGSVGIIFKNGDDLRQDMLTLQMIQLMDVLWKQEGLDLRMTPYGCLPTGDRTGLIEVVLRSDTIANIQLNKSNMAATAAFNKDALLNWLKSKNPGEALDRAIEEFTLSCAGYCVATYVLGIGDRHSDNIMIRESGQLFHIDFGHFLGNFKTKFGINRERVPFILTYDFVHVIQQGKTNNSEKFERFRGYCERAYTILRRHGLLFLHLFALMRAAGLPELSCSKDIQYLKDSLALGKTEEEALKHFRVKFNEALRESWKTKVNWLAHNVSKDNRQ
T2 sequence (P27986 whole entry partner): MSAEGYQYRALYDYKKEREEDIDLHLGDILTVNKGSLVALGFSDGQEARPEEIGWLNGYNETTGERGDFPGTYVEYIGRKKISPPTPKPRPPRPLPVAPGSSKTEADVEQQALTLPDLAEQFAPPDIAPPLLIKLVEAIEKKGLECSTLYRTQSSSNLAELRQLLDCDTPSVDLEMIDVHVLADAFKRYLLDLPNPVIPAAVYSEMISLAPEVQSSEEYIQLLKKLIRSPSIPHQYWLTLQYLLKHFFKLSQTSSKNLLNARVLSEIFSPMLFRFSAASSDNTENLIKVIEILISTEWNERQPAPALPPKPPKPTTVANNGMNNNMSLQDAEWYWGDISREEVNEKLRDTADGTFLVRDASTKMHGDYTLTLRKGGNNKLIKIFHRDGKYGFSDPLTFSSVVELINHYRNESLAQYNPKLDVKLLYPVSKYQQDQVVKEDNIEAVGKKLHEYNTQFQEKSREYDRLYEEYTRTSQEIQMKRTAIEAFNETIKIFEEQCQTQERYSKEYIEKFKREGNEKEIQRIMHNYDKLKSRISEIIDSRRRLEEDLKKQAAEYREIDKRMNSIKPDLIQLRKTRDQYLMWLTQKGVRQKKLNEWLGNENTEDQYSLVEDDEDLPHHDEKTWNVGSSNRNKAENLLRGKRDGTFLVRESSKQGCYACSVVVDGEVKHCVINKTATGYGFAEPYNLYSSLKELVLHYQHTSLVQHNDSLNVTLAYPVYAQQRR
Outline: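 PIP3 formation read by loss of energy transfer as it displaces biotin-PIP3 from a Eu anti-GST/GST-PH/streptavidin-APC complex, calibrated against PIP3 standards.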

BTK = molecular target: T3, BTK (Homo sapiens, UniProt Q06187); assay: BTK kinase assay (HotSpot, 33P ATP); details: for BTK @ 0.1 μM (% Inh): 0.1 μM compound; for BTK @ 1 μM (% Inh): 1 μM compound; for pIC50: 10 dose IC50, 10 μM ATP
T3 construct: purchased Reaction Biology Corporation
T3 sequence (Q06187 whole entry): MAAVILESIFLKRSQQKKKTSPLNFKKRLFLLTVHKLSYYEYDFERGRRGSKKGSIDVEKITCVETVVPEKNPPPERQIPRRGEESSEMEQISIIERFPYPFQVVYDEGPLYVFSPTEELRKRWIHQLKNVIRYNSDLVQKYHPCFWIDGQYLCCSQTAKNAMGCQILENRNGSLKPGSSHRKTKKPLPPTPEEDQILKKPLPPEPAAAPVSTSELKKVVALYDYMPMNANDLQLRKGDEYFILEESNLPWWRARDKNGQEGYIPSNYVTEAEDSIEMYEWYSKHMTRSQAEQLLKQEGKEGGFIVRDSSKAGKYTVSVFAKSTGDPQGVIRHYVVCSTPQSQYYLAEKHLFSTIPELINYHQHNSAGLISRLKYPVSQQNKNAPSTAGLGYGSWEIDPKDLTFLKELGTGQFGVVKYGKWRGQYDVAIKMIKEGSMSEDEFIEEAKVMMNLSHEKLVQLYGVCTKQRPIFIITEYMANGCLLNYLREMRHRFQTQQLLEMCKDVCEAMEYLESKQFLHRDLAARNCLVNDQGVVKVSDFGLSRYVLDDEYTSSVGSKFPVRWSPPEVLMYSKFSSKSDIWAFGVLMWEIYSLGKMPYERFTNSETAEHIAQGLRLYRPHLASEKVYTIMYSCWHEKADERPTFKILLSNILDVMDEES
Outline: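 In 20 mM Hepes (pH 7.5) with 10 mM MgCl2, 1 mM EGTA, 0.1 mM Na3VO4, 2 mM DTT, 0.02% Brij35, 0.02 mg/mL BSA and 1% DMSO, kinase and substrate were exposed to ten compound doses for 15–20 min.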

PI3Kγ = molecular target: T4, PI3Kγ (Homo sapiens, UniProt P48736); assay: PI3Kγ isoform profiling (PI3Kδ protocol); details: for PI3Kγ @ 0.3 μM (% Inh): 0.3 μM compound; for pIC50: 10 dose IC50
T4 construct: purchased Reaction Biology Corporation
T4 sequence (P48736 whole entry, canonical isoform): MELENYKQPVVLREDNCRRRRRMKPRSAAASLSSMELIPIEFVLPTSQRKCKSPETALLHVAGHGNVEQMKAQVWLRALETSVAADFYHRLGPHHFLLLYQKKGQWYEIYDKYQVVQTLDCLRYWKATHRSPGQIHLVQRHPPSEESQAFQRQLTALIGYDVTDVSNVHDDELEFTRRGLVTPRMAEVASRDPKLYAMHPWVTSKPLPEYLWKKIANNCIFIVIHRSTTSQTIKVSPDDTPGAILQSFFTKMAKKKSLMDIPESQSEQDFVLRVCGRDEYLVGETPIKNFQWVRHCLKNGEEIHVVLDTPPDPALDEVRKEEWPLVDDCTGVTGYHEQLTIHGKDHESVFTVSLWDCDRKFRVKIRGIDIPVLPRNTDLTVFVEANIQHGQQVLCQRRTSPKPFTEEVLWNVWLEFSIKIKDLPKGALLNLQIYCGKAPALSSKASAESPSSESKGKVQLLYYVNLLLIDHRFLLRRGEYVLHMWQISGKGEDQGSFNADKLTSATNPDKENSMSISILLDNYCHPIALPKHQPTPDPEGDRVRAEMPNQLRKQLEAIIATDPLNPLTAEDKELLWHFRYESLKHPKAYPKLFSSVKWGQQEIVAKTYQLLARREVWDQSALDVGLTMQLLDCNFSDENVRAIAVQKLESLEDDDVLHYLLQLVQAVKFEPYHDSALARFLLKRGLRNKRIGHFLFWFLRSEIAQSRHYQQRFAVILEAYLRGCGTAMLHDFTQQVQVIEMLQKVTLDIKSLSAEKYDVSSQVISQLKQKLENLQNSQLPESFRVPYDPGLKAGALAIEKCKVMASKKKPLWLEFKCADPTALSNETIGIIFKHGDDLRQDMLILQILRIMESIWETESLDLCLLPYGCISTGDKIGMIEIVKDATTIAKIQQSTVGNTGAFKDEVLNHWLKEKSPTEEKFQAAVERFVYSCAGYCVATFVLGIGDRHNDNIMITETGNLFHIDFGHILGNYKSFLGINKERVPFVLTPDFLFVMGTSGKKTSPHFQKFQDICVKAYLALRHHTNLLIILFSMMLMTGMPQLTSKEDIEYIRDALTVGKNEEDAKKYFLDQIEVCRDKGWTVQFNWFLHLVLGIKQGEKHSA
Source text: (§1) PI3Kδ assay: The PIP3 product is detected by displacement of biotin-PIP3 from an energy transfer complex consisting of Europium labeled anti-GST monoclonal antibody, a GST-tagged pleckstrin homology (PH) domain, biotinylated PIP3 and Streptavidin-Allophycocyanin (APC). Excitation of Europium in the complex results in an energy transfer to the APC and a fluorescent emission at 665 nm. The PIP3 product formed by PI 3-Kinase(h) activity displaces biotin-PIP3 from the complex resulting in a loss of energy transfer and thus a decrease in signal. This is a 3-step reaction: First, the kinase reaction with PIP2 substrate is carried out in the presence of ATP (10 μM), and the reaction is quenched with stop Solution, and then finally detect by adding Detection Mixture followed by incubation (10 min). Reaction procedure: 1) Prepare substrate in freshly prepared Reaction Buffer. 2) Deliver kinase into the substrate solution and gently mix. 3) Deliver compounds in 100% DMSO (1 μM) into the kinase reaction mixture by Acoustic technology (Echo550; nanoliter range), incubate for 10 min at RT. 4) Deliver ATP into the reaction mixture to initiate the reaction. 5) Incubate for 30 min at 30° C. 6) Quench the reaction with Stop Solution. 7) Add Detection Mixture, and incubate for overnight. 8) Measure HTRF: Ex=320 nm, ratio of Em=615 nm and Em=665 nm. The emission ratio is converted into μM PIP3 production based on PIP3 standard curves. The nonlinear regression to obtain the standard curve and IC50 values are performed using Graphpad Prism software. Assay Buffer: HEPES 50 mM (pH7.0), NaN3 0.02%, BSA 0.01%, Orthovanadate 0.1 mM, 1% DMSO. Detection buffer: HEPES 10 mM (pH7.0), BSA 0.02%, KF 0.16 M, EDTA 4 mM. Substrate: 10 μM PIP2 substrate (PI(4,5)P2).
(§2) Compounds of the invention were profiled in a 10 dose IC50 panel against PI3Kα, PI3Kβ, and PI3Kγ kinases, provided by Reaction Biology Corporation, applied to the PI3Kδ protocol provided in Example B1.

PI3Kβ = molecular target: T5, PI3Kβ (Homo sapiens, UniProt P42338); assay: PI3Kβ isoform profiling (PI3Kδ protocol); details: for PI3Kβ @ 0.3 μM (% Inh): 0.3 μM compound; for pIC50: 10 dose IC50
T5 construct: purchased Reaction Biology Corporation
T5 sequence (P42338 whole entry, canonical isoform): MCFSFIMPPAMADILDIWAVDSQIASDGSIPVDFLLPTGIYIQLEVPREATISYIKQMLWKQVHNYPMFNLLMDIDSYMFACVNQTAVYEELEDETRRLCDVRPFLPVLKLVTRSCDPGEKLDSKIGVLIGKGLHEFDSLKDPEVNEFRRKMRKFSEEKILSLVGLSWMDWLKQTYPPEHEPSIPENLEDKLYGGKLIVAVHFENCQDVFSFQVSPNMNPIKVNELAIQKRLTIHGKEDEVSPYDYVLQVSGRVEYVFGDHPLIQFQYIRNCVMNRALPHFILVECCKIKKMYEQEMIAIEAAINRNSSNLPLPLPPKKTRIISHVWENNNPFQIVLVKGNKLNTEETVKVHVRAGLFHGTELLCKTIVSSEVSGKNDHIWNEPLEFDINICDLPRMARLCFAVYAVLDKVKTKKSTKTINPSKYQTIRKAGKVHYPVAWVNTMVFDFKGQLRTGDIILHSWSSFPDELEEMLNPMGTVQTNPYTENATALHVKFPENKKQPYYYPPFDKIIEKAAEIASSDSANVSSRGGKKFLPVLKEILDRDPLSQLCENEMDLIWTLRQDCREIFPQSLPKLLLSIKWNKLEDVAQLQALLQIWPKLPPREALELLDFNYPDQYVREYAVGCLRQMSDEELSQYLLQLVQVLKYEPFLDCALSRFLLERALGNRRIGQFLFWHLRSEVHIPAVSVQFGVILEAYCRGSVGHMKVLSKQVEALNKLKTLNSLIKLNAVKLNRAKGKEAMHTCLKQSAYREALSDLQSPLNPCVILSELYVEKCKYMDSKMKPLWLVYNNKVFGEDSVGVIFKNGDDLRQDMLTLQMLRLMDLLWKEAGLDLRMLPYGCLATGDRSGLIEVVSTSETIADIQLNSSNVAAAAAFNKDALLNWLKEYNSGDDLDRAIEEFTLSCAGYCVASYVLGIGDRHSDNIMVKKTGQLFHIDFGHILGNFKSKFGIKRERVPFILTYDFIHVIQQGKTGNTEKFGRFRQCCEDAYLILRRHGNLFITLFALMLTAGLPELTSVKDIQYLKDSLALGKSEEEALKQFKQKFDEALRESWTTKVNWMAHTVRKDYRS
T5 sequence (P27986 whole entry partner, canonical isoform): as the sequence (P27986 whole entry partner) above
Source text: as §1, §2

Compound	TEC @ 0.3 μM (% Inh) (TEC)	PI3Kδ @ 0.1 μM (% Inh) (PI3Kδ; 10 μM ATP)	PI3Kδ @ 1 μM (% Inh) (PI3Kδ; 10 μM ATP)	pIC50 (PI3Kδ)	BTK @ 0.1 μM (% Inh) (BTK; 10 μM ATP)	BTK @ 1 μM (% Inh) (BTK; 10 μM ATP)	pIC50 (BTK)	PI3Kγ @ 0.3 μM (% Inh) (PI3Kγ)	PI3Kβ @ 0.3 μM (% Inh) (PI3Kβ)	pIC50 (TEC)	pIC50 (PI3Kγ)	pIC50 (PI3Kβ)	PI3Kδ @ 0.01 μM (% Inh) (PI3Kδ; 0.01 μM compound, 10 μM ATP)	BTK @ 0.01 μM (% Inh) (BTK; 0.01 μM compound, 10 μM ATP)
COc1cc(-c2nn(C3Cc4ccccc4C3)c3ncnc(N)c23)ccc1C [Compound No. 49, 1-(2,3-dihydro-1H-inden-2-yl)-3-(3-methoxy-4-methylphenyl)-1H-pyrazolo[3,4-d]pyrimidin-4-amine]	44.68	57.87	89.73	6.92	75.02	96.31	7.24	30.41	19.09	–	–	–	–	–
Nc1ncnc2c1c(-c1ccc(Cl)c(O)c1)cn2C1Cc2ccccc2C1 [Compound No. 93, 5-[4-amino-7-(2,3-dihydro-1H-inden-2-yl)-7H-pyrrolo[2,3-d]pyrimidin-5-yl]-2-chlorophenol]	106.37	59.57	–	7.67	96.32	–	9.10	72.89	47.09	–	–	–	24.46	77.86
Nc1ncnc2c1c(-c1cc(O)cc(F)c1)cn2C1Cc2ccccc2C1 [Compound No. 63, 3-[4-amino-7-(2,3-dihydro-1H-inden-2-yl)-7H-pyrrolo[2,3-d]pyrimidin-5-yl]-5-fluorophenol]	88.12	81.43	92.56	7.98	92.01	98.56	8.38	33.44	50.79	–	–	–	–	–
C=CC(=O)N1CC(n2nc(-c3cc(O)cc(F)c3)c3c(N)ncnc32)Cc2cc(C)ccc21 (centres unmarked) [compound 31, 1-(3-(4-amino-3-(3-fluoro-5-hydroxyphenyl)-1H-pyrazolo[3,4-d]pyrimidin-1-yl)-6-methyl-3,4-dihydroquinolin-1(2H)-yl)prop-2-en-1-one]	57.08	44.38	–	7.47	68.24	–	7.76	0.74	52.63	4.61	5.19	6.03	–	–

The next lines start with the values.

TEC @ 0.3 μM (% Inh) (TEC)	PI3Kδ @ 0.1 μM (% Inh) (PI3Kδ; 10 μM ATP)	PI3Kδ @ 1 μM (% Inh) (PI3Kδ; 10 μM ATP)	pIC50 (PI3Kδ)	BTK @ 0.1 μM (% Inh) (BTK; 10 μM ATP)	BTK @ 1 μM (% Inh) (BTK; 10 μM ATP)	pIC50 (BTK)	PI3Kγ @ 0.3 μM (% Inh) (PI3Kγ)	PI3Kβ @ 0.3 μM (% Inh) (PI3Kβ)	pIC50 (TEC)	pIC50 (PI3Kγ)	pIC50 (PI3Kβ)	PI3Kδ @ 0.01 μM (% Inh) (PI3Kδ; 0.01 μM compound, 10 μM ATP)	BTK @ 0.01 μM (% Inh) (BTK; 0.01 μM compound, 10 μM ATP)	Compound
–	47.94	–	7.26	82.1	–	7.68	–	–	7.09	6.34	6.10	–	–	Nc1ncnc2c1c(-c1ccc(F)c(O)c1)nn2C1CCc2ccccc2C1 (single isomer, unassigned) [Compound No. 26b, 5-(4-amino-1-(1,2,3,4-tetrahydronaphthalen-2-yl)-1H-pyrazolo[3,4-d]pyrimidin-3-yl)-2-fluorophenol]
–	39.35	–	6.94	84.11	–	7.98	–	–	7.31	6.39	5.95	–	–	Nc1ncnc2c1c(-c1ccc(F)c(O)c1)nn2C1CCc2ccccc2C1 (single isomer, unassigned) [Compound No. 26a, 5-(4-amino-1-(1,2,3,4-tetrahydronaphthalen-2-yl)-1H-pyrazolo[3,4-d]pyrimidin-3-yl)-2-fluorophenol]
–	–	–	8.07	–	–	7.06	–	–	6.55	6.91	6.98	–	–	Nc1ncnc2c1c(-c1cc(O)cc(F)c1)nn2C1CCc2ccccc2C1 (centres unmarked) [compound 6, 3-(4-amino-1-(1,2,3,4-tetrahydronaphthalen-2-yl)-1H-pyrazolo[3,4-d]pyrimidin-3-yl)-5-fluorophenol]
